From patent US20240254138A1, “TRICYCLIC PYRIMIDINES AS CYCLIN-DEPENDENT KINASE 7 (CDK7) INHIBITORS” (JANSSEN PHARMACEUTICA NV, priority 2021, published 2024) come the findings set out here.

Like-named read-outs stand apart in the source and are kept apart here.

By kinact is commonly meant the rate constant of inactivation at saturating inhibitor.

The target of experiment [1] is CDK7/cyclinH/MAT1 trimeric complex (Homo sapiens, UniProt P50613). The experiment is described as follows: In vitro CDK7 assay, potency of irreversible covalent inhibitors (kinact/KI), coupled PK/LDH ADP readout at 340 nm. As to conditions: for Ki: CDK7 (20 nM enz.) (KI, μM), 20 nM enzyme; for kinact: read-out: CDK7 (20 nM enz.) (kinact, s^−1), 20 nM enzyme.
Sequence of CDK7/cyclinH/MAT1 trimeric complex (P50613 whole entry): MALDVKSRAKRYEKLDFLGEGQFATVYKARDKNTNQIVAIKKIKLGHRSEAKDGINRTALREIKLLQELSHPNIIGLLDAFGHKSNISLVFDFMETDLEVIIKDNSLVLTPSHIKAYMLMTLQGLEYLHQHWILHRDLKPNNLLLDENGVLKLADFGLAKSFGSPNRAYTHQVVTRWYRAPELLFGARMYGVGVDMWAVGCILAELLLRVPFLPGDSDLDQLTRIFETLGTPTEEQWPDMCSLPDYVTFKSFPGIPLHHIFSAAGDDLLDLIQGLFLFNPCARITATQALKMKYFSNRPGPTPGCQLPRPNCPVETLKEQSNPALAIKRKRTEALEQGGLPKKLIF
Sequence of CDK7/cyclinH/MAT1 trimeric complex (P51946 whole entry partner): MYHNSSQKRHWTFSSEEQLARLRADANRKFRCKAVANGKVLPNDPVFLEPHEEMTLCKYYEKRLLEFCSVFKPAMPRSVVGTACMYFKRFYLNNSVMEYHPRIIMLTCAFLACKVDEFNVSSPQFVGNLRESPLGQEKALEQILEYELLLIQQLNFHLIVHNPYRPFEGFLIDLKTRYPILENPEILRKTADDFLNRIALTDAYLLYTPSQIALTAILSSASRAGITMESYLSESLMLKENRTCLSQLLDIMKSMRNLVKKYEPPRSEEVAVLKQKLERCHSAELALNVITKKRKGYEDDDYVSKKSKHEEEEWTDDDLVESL
Sequence of CDK7/cyclinH/MAT1 trimeric complex (P51948 whole entry partner): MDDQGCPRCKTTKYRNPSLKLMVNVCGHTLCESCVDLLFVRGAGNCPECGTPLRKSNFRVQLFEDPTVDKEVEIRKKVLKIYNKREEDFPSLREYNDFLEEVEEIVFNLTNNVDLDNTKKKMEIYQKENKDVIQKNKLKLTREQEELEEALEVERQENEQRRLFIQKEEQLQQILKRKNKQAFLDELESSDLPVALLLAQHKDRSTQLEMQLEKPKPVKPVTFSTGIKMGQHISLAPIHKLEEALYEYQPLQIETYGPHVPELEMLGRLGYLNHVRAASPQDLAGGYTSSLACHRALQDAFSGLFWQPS
Experiment [2] has as its system RNA Polymerase II Serine 5 phosphorylation in A549 cells overexpressing CDK7-mutant (C312S). The experiment is described as follows: Imaging-based cellular RNA PolII Ser5 phosphorylation assay in A549 cells overexpressing CDK7-mutant (C312S). As to conditions: Homo sapiens, A549, A549 cells overexpressing CDK7-mutant (C312S); RNA PolII Ser5 phosphorylation; averaged over all measurements; read-out: CDK7_A549 mutant hCDK7(pIC50) (converted). It counts as cell-based, human. The essentials:
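A549 cells overexpressing CDK7 C312S (with endogenous wild-type CDK7) were treated with compound for 3 h at 37 °C in 1% FBS medium. Phospho-Rpb1 CTD Ser5 was immunostained after fixation and imaged. IC50 came from curve fit of % control, normalised to DMSO and 10 μM reference-compound controls.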

The test system of experiment [3] is RNA Polymerase II Serine 5 phosphorylation (Rpb1 CTD, downstream substrate of CDK7) in A549 cells. The experiment is described as follows: Imaging-based cellular RNA PolII Ser5 phosphorylation assay in A549 cells. In kind it is cell-based, human. The settings on record: Homo sapiens, A549, A549 cells, wild-type CDK7; RNA PolII Ser5 phosphorylation; averaged over all measurements; read-out: CDK7_A549 Wild-type CDK7 (pIC50) (converted). The essentials:
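A549 cells, seeded 1000/well in DMEM with 1% FBS and cultured 20 h, were treated with compound for 3 h at 37 °C. Ser5-phospho-Rpb1 CTD detected by immunofluorescence imaging after fixation and methanol permeabilization; IC50 from curve fit normalized to DMSO and 10 μM reference-compound controls.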

[4] abbreviates: read-out: CDK7 (20 nM enz.) (kinact/KI, M^−1*s^−1), 20 nM enzyme.
Where [5] appears, read: read-out: CDK7 (20 nM enz.) (kobs/[I], M^−1*s^−1), 20 nM enzyme.

For `C=CC(=O)N1CC[C@@H](N2CC(c3cc4c(c(C5CC5)n3)OCc3c(-c5cnn(C)c5)ccnc3N4)C2)C1` (single isomer, unassigned) [Compound 286], the Ki in experiment [1] was 0.146 µM. Besides, the maximal inactivation rate constant (kinact) in experiment [1] was found to be 4.74e-05 s⁻¹. In addition, the kinact/KI in experiment [1] (setting [4]) amounted to 324 M⁻¹ s⁻¹. Also, the IC50 in experiment [2] was above 10000 nM; in experiment [3], 126 nM.
With `C=CC(=O)N1CC[C@H](N2CC(c3cc4c(c(C5CC5)n3)OCc3c(-c5cnn(C)c5)ccnc3N4)C2)C1` (single isomer, unassigned) [Compound 287], in experiment [1], the Ki amounted to 0.188 µM and the kinact stood at 0.000117 s⁻¹. Moreover, the kinact/KI in experiment [1] (setting [4]) came to 622 M⁻¹ s⁻¹. Also, in experiment [2], the IC50 is above 10000 nM. For the same compound, the IC50 in experiment [3] is 129 nM.
On to `CC#CC(=O)N1CC[C@H](N2CC(c3cc(C)c4c(c3)Nc3nccc(N5CCOCC5)c3[C@@H](C)O4)C2)C1` (single isomer, unassigned) [Compound 288], for which, in experiment [1], the Ki worked out at 0.0411 µM and the kinact is 2.54e-05 s⁻¹. Also, the kinact/KI in experiment [1] (setting [4]) was determined as 619 M⁻¹ s⁻¹. Besides, in experiment [2], the IC50 is 10000 nM. Besides, the IC50 in experiment [3] was 129 nM.
On the same counts, the results for `CC#CC(=O)N1CC[C@@H](N2CC(c3cc(C)c4c(c3)Nc3nccc(N5CCOCC5)c3[C@@H](C)O4)C2)C1` (single isomer, unassigned) [Compound 289] are 0.0628 µM, 2.54e-05 s⁻¹, 404 M⁻¹ s⁻¹, above 10000 nM and 123 nM.
Consider `C=CC(=O)N1CC(N2CC(c3cc(C#N)c4c(c3)Nc3nccc(C5CCOCC5)c3[C@H](C)O4)C2)C1` (single isomer, unassigned) [Compound 291], for which the kinact/KI in experiment [1] (setting [5]) was 26.5 M⁻¹ s⁻¹. The IC50 is above 10000 nM in experiment [2] and 1230 nM in experiment [3].
For `C=CC(=O)N1CC(N2CC(c3cc(C#N)c4c(c3)Nc3nccc(C5CCOCC5)c3[C@@H](C)O4)C2)C1` (single isomer, unassigned) [Compound 292], in that order: 802 M⁻¹ s⁻¹, 8320 nM and 56.2 nM.
As for `C=CC(=O)N1CC(N2CC(c3cc4c(cn3)O[C@H](C)c3c(-c5cnn(C)c5)ccnc3N4)C2)C1` (single isomer, unassigned) [Compound 295], in experiment [1], the Ki is 0.0688 µM and the kinact is 5.48e-05 s⁻¹. For the same compound, in experiment [1] (setting [4]), the kinact/KI turned out to be 796 M⁻¹ s⁻¹. In addition, in experiment [2], the IC50 is around 8320 nM. Moreover, the IC50 in experiment [3] was 178 nM.
In experiment [1], `CC#CC(=O)N1CC[C@@H](N2CC(c3cc(C)c4c(c3)Nc3nccc(C5CCOCC5)c3CO4)C2)C1` (single isomer, unassigned) [Compound 296] showed a Ki of 0.067 µM. The kinact in experiment [1] stood at 3.52e-05 s⁻¹. Further, the kinact/KI in experiment [1] (setting [4]) was 526 M⁻¹ s⁻¹. Besides, the figures for the IC50 in experiment [2] and in experiment [3] were above 10000 nM and 224 nM, respectively.
In the case of `COC(=O)/C=C/C(=O)N1CC[C@H](N2CCC(c3cc4c(c(C)n3)OCc3c(-c5cnn(C)c5)ccnc3N4)CC2)C1` (single isomer, unassigned) [Compound 297], the kinact/KI in experiment [1] (setting [5]) came out at 1240 M⁻¹ s⁻¹. Also, the IC50 in experiment [2] is above 10000 nM; in experiment [3], around 23.4 nM.
In the case of `CC#CC(=O)N1CC[C@@H](N2CCC(c3cc4c(c(C)n3)OCc3c(-c5cnn(C)c5)ccnc3N4)CC2)C1` (single isomer, unassigned) [Compound 299], in experiment [1], the Ki came out at 0.0959 µM and the kinact was 5.9e-05 s⁻¹. The kinact/KI in experiment [1] (setting [4]) amounted to 615 M⁻¹ s⁻¹. Also, the IC50 in experiment [2] was above 10000 nM. The IC50 in experiment [3] is 87.1 nM.
As for `COC(=O)/C=C/C(=O)N1CC[C@@H](N2CCC(c3cc4c(c(C)n3)OCc3c(-c5cnn(C)c5)ccnc3N4)CC2)C1` (single isomer, unassigned) [Compound 301], the kinact/KI in experiment [1] (setting [5]) was found to be 2790 M⁻¹ s⁻¹. Also, the IC50 in experiment [2] is above 10000 nM; in experiment [3], 24 nM.
`CC#CC(=O)N1CC[C@H](N2CCC(c3cc4c(c(C)n3)OCc3c(-c5cnn(C)c5)ccnc3N4)CC2)C1` (single isomer, unassigned) [Compound 304]: in experiment [1], the Ki amounted to 0.111 µM and the kinact is 4.09e-05 s⁻¹. Moreover, the kinact/KI in experiment [1] (setting [4]) amounted to 369 M⁻¹ s⁻¹. Besides, the IC50 in experiment [2] is above 10000 nM. Besides, the IC50 in experiment [3] was 129 nM.
Consider `CC#CC(=O)N1CC[C@H](N2CC(c3cc(C)c4c(c3)Nc3nccc(C5CCOCC5)c3CO4)C2)C1` (single isomer, unassigned) [Compound 305], for which, in experiment [1], the Ki came to 0.0839 µM and the kinact was found to be 2.97e-05 s⁻¹. In addition, in experiment [1] (setting [4]), the kinact/KI came to 354 M⁻¹ s⁻¹. For the same compound, in experiment [2], the IC50 is above 10000 nM. In experiment [3], the IC50 was 240 nM.
For `CC#CC(=O)N1CC(N2CC[C@@H](c3cc4c(c(C)n3)O[C@H](C)c3c(N5CCOCC5)ccnc3N4)C2)C1` (single isomer, unassigned) [Compound 308], in that order: 0.434 µM, 1.51e-05 s⁻¹, 34.8 M⁻¹ s⁻¹, above 10000 nM and 447 nM.
On the same counts, the results for `CC#CC(=O)N1CC[C@H](N2CCC(c3cc4c(c(C)n3)OCc3c(N5CCOCC5)ccnc3N4)CC2)C1` (single isomer, unassigned) [Compound 309] are 0.277 µM, 5.45e-05 s⁻¹, 197 M⁻¹ s⁻¹, above 10000 nM and 129 nM.
On the same counts, the results for `CC#CC(=O)N1CC[C@@H](N2CCC(c3cc4c(c(C)n3)OCc3c(N5CCOCC5)ccnc3N4)CC2)C1` (single isomer, unassigned) [Compound 310] are 0.115 µM, 6.29e-05 s⁻¹, 547 M⁻¹ s⁻¹, above 10000 nM and 75.9 nM.
With `C=CC(=O)N1CC(N2CC[C@@H](c3cc4c(c(C)n3)O[C@H](C)c3c(N5CCOCC5)ccnc3N4)C2)C1` (single isomer, unassigned) [Compound 319], in experiment [1], the Ki stood at 0.047 µM and the kinact turned out to be 6.15e-05 s⁻¹. Besides, the kinact/KI in experiment [1] (setting [4]) came to 1310 M⁻¹ s⁻¹. Besides, the IC50 in experiment [2] was above 10000 nM. In experiment [3], the IC50 was 77.6 nM.
On the same counts, the results for `C=CC(=O)N1CC[C@@H](N2CC(c3cc4c(c(C5CC5)n3)OCc3c(N5CCOCC5)ccnc3N4)C2)C1` (single isomer, unassigned) [Compound 323] are 0.0217 µM, 6.41e-05 s⁻¹, 2950 M⁻¹ s⁻¹, 7940 nM and 83.2 nM.
For the compound `C=CC(=O)N1CC[C@H](N2CC(c3cc4c(c(C5CC5)n3)OCc3c(N5CCOCC5)ccnc3N4)C2)C1` (single isomer, unassigned) [Compound 326], the kinact/KI in experiment [1] (setting [5]) came out at 939 M⁻¹ s⁻¹. For the same compound, the IC50 was 7760 nM in experiment [2] and 89.1 nM in experiment [3].
Consider `C=CC(=O)N1CC[C@@H](N2CC(c3cc(C)c4c(c3)Nc3nccc(N5CCOCC5)c3CO4)C2)C1` (single isomer, unassigned) [Compound 327], for which, in experiment [1], the Ki worked out at 0.0302 µM and the kinact stood at 4.16e-05 s⁻¹. Further, the kinact/KI in experiment [1] (setting [4]) came to 1380 M⁻¹ s⁻¹. Besides, the IC50 in experiment [2] is around 10000 nM. For the same compound, the IC50 in experiment [3] was 79.4 nM.
As for `CC#CC(=O)N1CC(N2CC[C@@H](c3cc4c(c(C)n3)O[C@@H](C)c3c(N5CCOCC5)ccnc3N4)C2)C1` (single isomer, unassigned) [Compound 328], in experiment [1], the Ki amounted to 0.472 µM and the kinact was 2.77e-05 s⁻¹. In addition, the kinact/KI in experiment [1] (setting [4]) was 58.8 M⁻¹ s⁻¹. Further, the IC50 in experiment [2] is above 10000 nM. Moreover, the IC50 in experiment [3] was 224 nM.
